The numbers were not newly measured in patent US20120095034A1, “PIPERIDINE DERIVATIVES USEFUL AS OREXIN RECEPTOR ANTAGONISTS” (priority 2007, published 2012), which cites them from elsewhere.

In this data set the test system is rats. The following applies: central administration at the onset of the normal sleep period, rat.

No end group written: not given here.

With “orexin-A: ligand for the orexin-1 receptor; an agonist of the orexin receptors (QPLPDCCRQKTCSCRLYELLHGAGNHAAGILTL; ends and bridges not checked; cysteine pairing not given here; UniProt O43612 34-66, looked up)”, the arousal entry is given as “dose-related increase in arousal”.
